Values joined by “and” are separate entries in the source; they are usually repeats but may differ in a detail not shown here. Equal values may be shown once. “Also recorded” adds a separate entry of the source. Marks after values point to notes of the source that are not given here.
Experiments:
α3β3γ2 GABAA receptor [1] = biological target: T1, α3β3γ2 GABAA receptor (Rattus norvegicus, UniProt P20236+P63079); assay type: cell-based; conditions: 1 mM compound co-applied with approx. GABA EC20–25
[2] = tested on: GABA recognition site (GABAA receptors) in native cerebellar membranes; assay: [3H]muscimol binding, rat cerebellar membranes; conditions: for pseudo-Hill coefficient η, cerebellum: against 6 nM [3H]muscimol, mean ± S.E.M.
α4β3γ2 GABAA receptor = α4β3γ2 GABAA receptor (Rattus norvegicus, UniProt P28471+P63079); conditions: for Current induced by compound alone, % of maximal GABA-induced current: 1 mM compound
[3] = tested on: GABA recognition site (GABAA receptors) in native cortical membranes; assay: [3H]muscimol binding, rat cortical membranes; conditions: for Inhibition of muscimol binding at 100 μM (criterion for full binding analysis): cortical and cerebellar membranes (tissue not given); for pseudo-Hill coefficient η, cortex: against 6 nM [3H]muscimol, mean ± S.E.M.
α1β3γ2 GABAA receptor [4] = biological target: T2, α1β3γ2 GABAA receptor (Rattus norvegicus, UniProt P62813+P63079); conditions: for Current induced by compound alone, % of maximal GABA-induced current: 1 mM compound
α1R66Cβ2 GABAA receptor = α1R66Cβ2 GABAA receptor (Rattus norvegicus, UniProt P62813+P63138, R93C)
α3β3γ2 GABAA receptor [5] = biological target: T1, α3β3γ2 GABAA receptor
α5β3γ2 GABAA receptor = α5β3γ2 GABAA receptor (Rattus norvegicus, UniProt P19969+P63079)
α1β2 wt GABAA receptor [6] = biological target: T3, α1β2 wt GABAA receptor (Rattus norvegicus, UniProt P62813+P63138); assay type: cell-based
α1S68Cβ2 GABAA receptor = α1S68Cβ2 GABAA receptor (Rattus norvegicus, UniProt P62813+P63138, S95C); assay type: cell-based; conditions: read-out: Inhibition of the EC20 GABA current
α1F64Cβ2 GABAA receptor [7] = biological target: T4, α1F64Cβ2 GABAA receptor (Rattus norvegicus, UniProt P62813+P63138, F91C); assay type: cell-based
α1β2 wt GABAA receptor [8] = biological target: T3, α1β2 wt GABAA receptor; assay: Cysteine modification by MTS reagent, oocyte voltage clamp, wt; assay type: cell-based; conditions: data not shown
α1F64Cβ2 GABAA receptor [9] = biological target: T4, α1F64Cβ2 GABAA receptor
α1β3γ2 GABAA receptor [10] = biological target: T2, α1β3γ2 GABAA receptor; assay type: cell-based; conditions: 1 mM compound co-applied with approx. GABA EC20–25
[11] = read-out: Inhibition of the EC20 GABA current

Row | SMILES | Potentiation of GABA-induced current (α3β3γ2 GABAA receptor [1]) | pseudo-Hill coefficient η, cerebellum [2] | Current induced by compound alone, % of maximal GABA-induced current (α4β3γ2 GABAA receptor) | Inhibition of muscimol binding at 100 μM (criterion for full binding analysis) [3] | pseudo-Hill coefficient η, cortex [3] | Current induced by compound alone, % of maximal GABA-induced current (α1β3γ2 GABAA receptor [4]) | further results
1 | Cl.Oc1nnc(C2CCNCC2)o1 [5a, 5-Piperidin-4-yl-3H-[1,3,4]oxadiazol-2-one Hydrochloride] | 22 ± 11% | 0.79 ± 0.06 | less than 10% | at least 30% | 0.86 ± 0.10 | less than 10% | Effect of repeated application on subsequent GABA currents (α1R66Cβ2 GABAA receptor; repeated 10 s applications of 30 mM, α1R66Cβ2): did not decrease the subsequent GABA test currents; also recorded: did not irreversible alter the subsequent GABA currents
2 | Cl.NCc1nnc(O)o1 [5d, 5-Aminomethyl-3H-[1,3,4]oxadiazol-2-one Hydrochloride] | – | 0.90 ± 0.21 | – | at least 30% | 1.12 ± 0.13 | – | Hill coefficient (direct activation) (α4β3γ2 GABAA receptor): 1.56 ± 0.11; EC50 (α3β3γ2 GABAA receptor [5]): 1 mM; Hill coefficient (direct activation) (α3β3γ2 GABAA receptor [5]; α3β3γ2, value of an extrapolated dose-response curve): 0.81 ^*; Hill coefficient (direct activation) (α1β3γ2 GABAA receptor [4]): 0.99 ± 0.05; Hill coefficient (direct activation) (α5β3γ2 GABAA receptor): 1.31 ± 0.12
3 | Cl.NCCc1nnc(O)o1 [5g] | – | 0.92 and 0.92 ± 0.11 | – | at least 30% | 0.63 and 0.63 ± 0.06 | – | –
4 | Cl.Sc1nnc(C2CCNCC2)o1 [6a, 5-Piperidin-4-yl-3H-[1,3,4]oxadiazol-2-thione Hydrochloride] | 114 ± 8% | 1.03 ± 0.08 | less than 10% | at least 30% | 0.99 ± 0.09 | less than 10% | inhibition at 1000 µM (α1β2 wt GABAA receptor [6]; [11]): > 90%; inhibition at 1000 µM (α1S68Cβ2 GABAA receptor): > 90%; 6a EC50 relative to wt (α1F64Cβ2 GABAA receptor [7]): 0.6 fold; inhibition at 1000 µM (α1F64Cβ2 GABAA receptor [7]; [11]): > 90%
5 | Cl.NCc1nnc(S)o1 [6d, 5-Aminomethyl-3H-[1,3,4]oxadiazol-2-thione Hydrochloride] | – | 0.96 ± 0.12 | – | at least 30% | 0.92 ± 0.05 | – | –
6 | Oc1nnc(C2CCCCC2)o1 [9d, 5-Cyclohexyl-3H-[1,3,4]oxadiazole-2-one] | – | – | – | – | – | – | Percent inhibition of [3H]muscimol binding, cerebellum, 100 μM ([2]; 100 μM test compound, well-washed rat cerebellum membranes, mean ± S.D.): −11 ± 11 (3) %
7 | CS(=O)(=S)OCCNC(=O)CCCC[C@@H]1SC[C@@H]2NC(=O)N[C@@H]21 (stereo partly shown) [MTSEA-biotin] | – | – | – | – | – | – | Inhibition of subsequent GABA test currents, MTSEA-biotin alone (control) (α1R66Cβ2 GABAA receptor; 30 μM MTSEA-biotin, α1R66Cβ2, n = 2): 87% and 100%
8 | CS(=O)(=O)SCCS(=O)(=O)O [MTSES^−, 2-sulfonatoethyl methanethiosulfonate] | – | – | – | – | – | – | Effect of MTS reagent on the GABA current (α1β2 wt GABAA receptor [8]): did not affect the GABA current; Inhibition of subsequent GABA EC50 current, MTSES− alone (control) (α1R66Cβ2 GABAA receptor; 12 s, 2 mM MTSES−, α1R66Cβ2): 91 ± 3%; Inhibition of GABA EC50 currents after complete reaction with MTS reagent (α1R66Cβ2 GABAA receptor; α1R66C + β2, % ± S.E.M.): 62 ± 3 (4) %; Second-order reaction rate constant with the engineered cysteine (α1R66Cβ2 GABAA receptor; α1R66Cβ2): 48 ± 7 M⁻¹ s⁻¹; Reduction in subsequent GABA EC50 test currents, MTSES− alone (control) (α1F64Cβ2 GABAA receptor [9]; 12 s, 10 μM MTSES−, α1F64Cβ2): 87% and 87 ± 3%; Inhibition of GABA EC50 currents after complete reaction with MTS reagent (α1F64Cβ2 GABAA receptor [9]; α1F64C + β2, % ± S.E.M.): 89 ± 3 (4) %
9 | Cc1nnc(C2CCNCC2)o1.Cl [compound 19, 4-(5-Methyl-[1,3,4]oxadiazol-2-yl)-piperidine Hydrochloride] | 11% | 0.91 ± 0.05 | less than 10% | at least 30% | 0.88 ± 0.08 | less than 10% | Current induced by compound alone, % of maximal GABA-induced current (α3β3γ2 GABAA receptor [5]; 1 mM compound, α3β3γ2): less than 10%; Potentiation of GABA-induced current (α1β3γ2 GABAA receptor [10]): 21%; Current induced by compound alone, % of maximal GABA-induced current (α5β3γ2 GABAA receptor; 1 mM compound): less than 10%
10 | C=C(C)[C@@H]1[C@H]2OC(=O)[C@@H]1[C@]1(O)C[C@H]3O[C@]34C(=O)O[C@H]2[C@]14C [picrotoxinin, reference compound] | – | – | – | – | – | – | inhibition at 100 µM (α1β2 wt GABAA receptor [6]; read-out: Inhibition of 6a-induced currents): 80 to 90%

From PMC2566937 (Journal of medicinal chemistry, 2008)
